This is an account of results in patent publication US5214034A, “Catechol derivatives, and preventive and remedial preparations for regressive disorders in the central nervous system containing the same” (priority 1986, dated 1993).

Molecules are shown by their SMILES. Like-named read-outs stand apart in the source and are kept apart here.

Experiment [1] concerns production and secretion of NGF on L-M cells. Kind of experiment: Promoting action for the production and secretion of NGF on L-M cells of mouse (ELISA). Type of experiment: cell-based. To be noted: Mus musculus. The source says:
Catecholamines have also been found in a relatively high concentration to accelerate these functions without being mediated by adrenergic receptors [Y. Furukawa et al., J. Biol. Chem., 261, 6039-6047 (1986)].
The compound having a high activity in Table 1, that is, the catechol derivative having a n-alkyl group in the 3 or 4 position on the ring has been observed an acute cell toxicity in higher concentrations. The toxicity was considered the result of two hydroxyl groups in the catechol structure. Then the hydroxyl groups were esterified or etherified and the resulting derivative was examined the effect on the activity for the production and secretion of NGF.
The experiment was performed according to the procedures of Y. Furukawa et al. which is described in J. Bis Chem., 261, 6039-6047 (1986).
The medium was cultured for 3 days at a temperature of 37° C. After completing the confluency (about 10^6 cells/well), the medium was changed to Medium 199 (0.5 ml/well) containing 0.5% bovine serum albumin (Fraction V, a product of Armour Co.). The sample of the derivative is contained in the medium at a prescribed concentration as illustrated in the Tables.
Background: ELISA stands for enzyme-linked immunosorbent assay.

Experiment [2] relates to production and secretion of NGF in brain astroglial cells. Nature of the experiment: Promoting activity for the production and secretion of NGF in brain astroglial cells of mouse (ELISA). The procedure:
The experiment was performed by inducing the astroglial cells from mouse forebrain to culture system according to the procedures of S. Furukawa et al. which is described in Biochem. Biophys. Res. Commun., 136, 57-63 (1986).
That is, forebrains of 8-day old mice were dissected out and cut into small pieces. […] Cells and cell clamps were recovered by centrifugation at 200 xg for 5 minutes. They were cultured in Dulbecco modified Eagle's medium (a product of Gibco Co. hereinafter abbreviated as DMEM) containing 10% of fetal calf serum, […] of penicillin, and 50 μg/ml of streptomycin, for 10 to 14 days with medium changes every 3 days. After completing confluency, the cells were dissociated by trypsin treatment and recultured in new culture flasks. This procedure was repeated further twice and more. […] The cells will hereinafter be referred to as astroglial cells.
Astroglial cells were innoculated in 24-well plates having a well surface area of 2.1 cm^2 (a product of Falcon Co.) at a cell density of about 3×10^4 cells/well and cultured for 3 days in DMEM . medium supplemented with 10% of fetal calf serum. After completing confluency about 10^7 cells/well), the medium was changed to DMEM medium (0.5 ml/well) supplemented with 0.5% of bovine serum albumin ((fraction V) and cultured for 3 days. The culture was further continued with medium changes every 3 days. After cells were practically synchronized in the quiscent stage, the medium was changed to 0.5 ml of the medium supplemented with 0.5% of bovine serum albumin and containing a prescribed concentration of test sample as illustrated in Tables. […] Data are expressed as fold increase in NGF content over that in the absence of the test sample. […] Data are presented as means ±SE of four determinations.

Setting [3] is: 24 h, Table 2, 0.03 mM, 24-hr culture, read-out: Ratio of NGF increase, 24-hr culture.
The mark [4] stands for this setting: 24 h, Table 2, 0.15 mM, 24-hr culture, read-out: Ratio of NGF increase, 24-hr culture.
Where [5] appears, read: 48 h, Table 2, 0.03 mM, 48-hr culture, read-out: Ratio of NGF increase, 48-hr culture.
The mark [6] stands for this setting: 48 h, Table 2, 0.15 mM, 48-hr culture, read-out: Ratio of NGF increase, 48-hr culture.
The mark [7] stands for this setting: 24 h, read-out: Ratio of NGF increase, 24-hr culture, Table 4, 0.10 mM, 24-hr culture.
Setting [8] is: 24 h, read-out: Ratio of NGF increase, 24-hr culture, Table 4, 0.25 mM, 24-hr culture.
Setting [9] is: 48 h, read-out: Ratio of NGF increase, 48-hr culture, Table 4, 0.10 mM, 48-hr culture.
Where [10] appears, read: 48 h, read-out: Ratio of NGF increase, 48-hr culture, Table 4, 0.25 mM, 48-hr culture.
Setting [11] is: 24 h, Table 1, 0.03 mM, 24 hours, mean ± SE of four determinations, read-out: Ratio of NGF increase.
Where [12] appears, read: 24 h, Table 1, 0.10 mM, 24 hours, mean ± SE of four determinations, read-out: Ratio of NGF increase.
[13] abbreviates: 24 h, read-out: Ratio of NGF increase, Table 3, 0.10 mM, 24 hours, mean ± SE of four determinations.
The mark [14] stands for this setting: 24 h, read-out: Ratio of NGF increase, Table 3, 0.25 mM, 24 hours, mean ± SE of four determinations.
The mark [15] stands for this setting: 24 h, read-out: Ratio of NGF increase.
[16] abbreviates: 24 h, read-out: Ratio of NGF increase, 24-hr culture.
Setting [17] is: 48 h, read-out: Ratio of NGF increase, 48-hr culture.

Regarding `COc1ccc(C)cc1O` [4-Methylguaiacol, reference compound], the fold induction at 30 µM in experiment [1] (setting [3]) came out at 1.09 ± 0.06; in experiment [1] (setting [5]) it was 1.1 ± 0.07. The fold induction at 150 µM in experiment [1] (setting [4]) was 1.03 ± 0.05; in experiment [1] (setting [6]) it was 1 ± 0.09.

On to `Cc1ccc2c(c1)OC(C)(C)O2` [C(CH3)2 -, R1 = H, R2 = Methyl, 5,2,2-trimethyl-1,3-benzodioxol], for which the figures for the fold induction at 30 µM in experiment [1] (setting [3]) and in experiment [1] (setting [5]) were 1.35 ± 0.12 and 4.33 ± 1.05, respectively. Also, the fold induction at 150 µM in experiment [1] (setting [4]) worked out at 1.22 ± 0.08; in experiment [1] (setting [6]), 3.86 ± 0.84. Further, the fold induction at 100 µM came out at 28.6 ± 2.23 in experiment [2] (setting [7]) and 41.6 ± 2.21 in experiment [2] (setting [9]). Moreover, the fold induction at 250 µM worked out at 33.7 ± 2.09 in experiment [2] (setting [8]) and 55.2 ± 4.42 in experiment [2] (setting [10]).

For `Cc1ccc2oc(=O)oc2c1` [CO-, R1 = H, R2 = Methyl, 4-methyl-o-phenylenecarbonate], the results for the fold induction at 30 µM in experiment [1] (setting [3]) and in experiment [1] (setting [5]) were 4.39 ± 0.62 and 7.54 ± 0.72, respectively. The fold induction at 150 µM in experiment [1] (setting [4]) turned out to be 4.82 ± 0.55; in experiment [1] (setting [6]), 6.99 ± 0.52. Moreover, the fold induction at 100 µM in experiment [2] (setting [7]) was 52.4 ± 5.29; in experiment [2] (setting [9]), 73.4 ± 4.25. Besides, the figures for the fold induction at 250 µM in experiment [2] (setting [8]) and in experiment [2] (setting [10]) were 44.9 ± 4.25 and 78.3 ± 6.5, respectively.

`Cc1ccc2oc(=O)c(=O)oc2c1` [CO.CO-, R1 = H, R2 = Methyl, 6-methyl-1,4-benzodioxine-2,3-dione]: the fold induction at 30 µM in experiment [1] (setting [3]) is 4.24 ± 0.58; in experiment [1] (setting [5]), 7.6 ± 0.43. In addition, the fold induction at 150 µM amounted to 4.62 ± 0.61 in experiment [1] (setting [4]) and 7.03 ± 0.69 in experiment [1] (setting [6]). Besides, the fold induction at 100 µM amounted to 47.2 ± 3.98 in experiment [2] (setting [7]) and 69.6 ± 3.25 in experiment [2] (setting [9]). Also, the results for the fold induction at 250 µM in experiment [2] (setting [8]) and in experiment [2] (setting [10]) were 50.6 ± 4.74 and 70.2 ± 5.37, respectively.

On to `CCc1ccc(O)c(O)c1CC` [R = Two H, R1 = Ethyl, R2 = Ethyl], for which the fold induction at 30 µM in experiment [1] (setting [11]) worked out at 3.01 ± 0.2. For the same compound, the fold induction at 100 µM in experiment [1] (setting [12]) amounted to 3.24 ± 0.19; in experiment [2] (setting [13]), 16.7 ± 1.84. Also, the fold induction at 250 µM in experiment [2] (setting [14]) is 23.6 ± 1.9.

As to `CCc1cccc(O)c1O` [R = Two H, R1 = Ethyl, R2 = H], in experiment [1] (setting [15]), the fold induction at 30 µM came to 9.76 ± 1.4 and the fold induction at 100 µM worked out at 11.7 ± 2.13. Moreover, in experiment [2] (setting [15]), the fold induction at 100 µM is 46.2 ± 3.97 and the fold induction at 250 µM is 62.8 ± 4.42.

As to `Oc1ccccc1O` [R = Two H, R1 = H, R2 = H, Catechol], in experiment [1] (setting [15]), the fold induction at 30 µM was found to be 1.03 ± 0.04 and the fold induction at 100 µM is 1.81 ± 0.09. In addition, in experiment [1] (setting [16]), the fold induction at 30 µM was determined as 1.15 ± 0.04 and the fold induction at 150 µM stood at 1.93 ± 0.12. Moreover, in experiment [1] (setting [17]), the fold induction at 30 µM is 1.31 ± 0.09 and the fold induction at 150 µM turned out to be 1.79 ± 0.2. In experiment [2] (setting [15]), the fold induction at 100 µM came to 2.51 ± 0.07 and the fold induction at 250 µM was 1.92 ± 0.09.

On to `CC(C)c1ccc(O)c(O)c1` [R = Two H, R1 = H, R2 = Isopropyl], for which the fold induction at 30 µM in experiment [1] (setting [11]) worked out at 6.17 ± 0.44. Besides, the fold induction at 100 µM was determined as 5.9 ± 0.41 in experiment [1] (setting [12]) and 34.6 ± 1.62 in experiment [2] (setting [13]). Also, the fold induction at 250 µM in experiment [2] (setting [14]) was found to be 42.9 ± 2.93.

Turning to `CCCCCc1ccc(O)c(O)c1` [R = Two H, R1 = H, R2 = n-Pentyl], the fold induction at 30 µM in experiment [1] (setting [11]) stood at 6.37 ± 0.25. For the same compound, the values for the fold induction at 100 µM in experiment [1] (setting [12]) and in experiment [2] (setting [13]) were 10.2 ± 0.71 and 43.8 ± 4.71, respectively. Moreover, the fold induction at 250 µM in experiment [2] (setting [14]) is 61 ± 5.82.

In the case of `CCC(C)c1ccc(O)c(O)c1` (centres unmarked) [R = Two H, R1 = H, R2 = sec-Butyl], in experiment [1] (setting [11]), the fold induction at 30 µM was determined as 9.23 ± 1.41. In addition, the fold induction at 100 µM in experiment [1] (setting [12]) was found to be 14.7 ± 1.87; in experiment [2] (setting [13]) it was 36.3 ± 3.49. The fold induction at 250 µM in experiment [2] (setting [14]) came out at 70.1 ± 5.75.

In the case of `CC(C)(C)c1ccc(O)c(O)c1` [R = Two H, R1 = H, R2 = tert-Butyl], the fold induction at 30 µM in experiment [1] (setting [11]) turned out to be 3.45 ± 0.35. In addition, the fold induction at 100 µM in experiment [2] (setting [13]) is 18.5 ± 1.5. The fold induction at 250 µM in experiment [2] (setting [14]) was 18.8 ± 2.92.
